Assay results: PMC7658267, “Effects of CYP46A1 Inhibition on Long-Term-Depression in Hippocampal Slices ex vivo and 24S-Hydroxycholesterol Levels in Mice in vivo” (Frontiers in Molecular Neuroscience, 2020)
Read-outs that look alike come from different tables or passages of the source.

Experiments:
Human 5-HT1A = target: T1, Human 5-HT1A (Homo sapiens, UniProt P08908); experiment: biochemical; design: CEREP off-target binding panel, per cent inhibition at 10 uM, n = 2
T1 construct: gene HTR1A

Human 5-HT1B = target: T2, Human 5-HT1B (Homo sapiens, UniProt P28222); experiment: biochemical; design: CEREP off-target binding panel, per cent inhibition at 10 uM, n = 2
T2 construct: gene HTR1B

Human 5-HT3 = target: T3, Human 5-HT3 (Homo sapiens, UniProt P46098); experiment: biochemical; design: CEREP off-target binding panel, per cent inhibition at 10 uM, n = 2
T3 construct: gene HTR3A

Human 5-HT5A = target: T4, Human 5-HT5A (Homo sapiens, UniProt P47898); experiment: biochemical; design: CEREP off-target binding panel, per cent inhibition at 10 uM, n = 2
T4 construct: gene HTR5A

Human 5-HT6 = target: T5, Human 5-HT6 (Homo sapiens, UniProt P50406); experiment: biochemical; design: CEREP off-target binding panel, per cent inhibition at 10 uM, n = 2
T5 construct: gene HTR6

Human 5-HT7 = target: T6, Human 5-HT7 (Homo sapiens, UniProt P34969); experiment: biochemical; design: CEREP off-target binding panel, per cent inhibition at 10 uM, n = 2
T6 construct: gene HTR7

Human A3 = target: T7, Human A3 (Homo sapiens, UniProt P0DMS8); experiment: biochemical; design: CEREP off-target binding panel, per cent inhibition at 10 uM, n = 2
T7 construct: gene ADORA3

Human AR = Human AR (Homo sapiens, UniProt P10275); experiment: biochemical; design: CEREP off-target binding panel, per cent inhibition at 10 uM, n = 2
Human CCR1 = Human CCR1 (Homo sapiens, UniProt P32246); experiment: biochemical; design: CEREP off-target binding panel, per cent inhibition at 10 uM, n = 2
Human D2s = target: T8, Human D2s (Homo sapiens, UniProt P14416); experiment: biochemical; design: CEREP off-target binding panel, per cent inhibition at 10 uM, n = 2
T8 construct: gene DRD2; D2s

Human GR = target: T9, Human GR (Homo sapiens, UniProt P04150); experiment: biochemical; design: CEREP off-target binding panel, per cent inhibition at 10 uM, n = 2
T9 construct: gene NR3C1

Human H1 = target: T10, Human H1 (Homo sapiens, UniProt P35367); experiment: biochemical; design: CEREP off-target binding panel, per cent inhibition at 10 uM, n = 2
T10 construct: gene HRH1

Human H2 = target: T11, Human H2 (Homo sapiens, UniProt P25021); experiment: biochemical; design: CEREP off-target binding panel, per cent inhibition at 10 uM, n = 2
T11 construct: gene HRH2

Human H3 = target: T12, Human H3 (Homo sapiens, UniProt Q9Y5N1); experiment: biochemical; design: CEREP off-target binding panel, per cent inhibition at 10 uM, n = 2
T12 construct: gene HRH3

Human KOP = target: T13, Human KOP (Homo sapiens, UniProt P41145); experiment: biochemical; design: CEREP off-target binding panel, per cent inhibition at 10 uM, n = 2
T13 construct: gene OPRK1

Human M1 = target: T14, Human M1 (Homo sapiens, UniProt P11229); experiment: biochemical; design: CEREP off-target binding panel, per cent inhibition at 10 uM, n = 2
T14 construct: gene CHRM1

Human MC4 = target: T15, Human MC4 (Homo sapiens, UniProt P32245); experiment: biochemical; design: CEREP off-target binding panel, per cent inhibition at 10 uM, n = 2
T15 construct: gene MC4R

Human MOP = target: T16, Human MOP (Homo sapiens, UniProt P35372); experiment: biochemical; design: CEREP off-target binding panel, per cent inhibition at 10 uM, n = 2
T16 construct: gene OPRM1

Human NK2 = target: T17, Human NK2 (Homo sapiens, UniProt P21452); experiment: biochemical; design: CEREP off-target binding panel, per cent inhibition at 10 uM, n = 2
T17 construct: gene TACR2

Human NK3 = target: T18, Human NK3 (Homo sapiens, UniProt P29371); experiment: biochemical; design: CEREP off-target binding panel, per cent inhibition at 10 uM, n = 2
T18 construct: gene TACR3

Human PR = target: T19, Human PR (Homo sapiens, UniProt P06401); experiment: biochemical; design: CEREP off-target binding panel, per cent inhibition at 10 uM, n = 2
T19 construct: gene PGR

Human PXR = target: T20, Human PXR (Homo sapiens, UniProt O75469); experiment: in vitro; design: CEREP off-target binding panel, per cent inhibition at 10 uM, n = 2
T20 construct: gene NR1I2

Human VPAC1 = target: T21, Human VPAC1 (Homo sapiens, UniProt P32241); experiment: biochemical; design: CEREP off-target binding panel, per cent inhibition at 10 uM, n = 2
T21 construct: gene VIPR1

Human β2 = target: T22, Human β2 (Homo sapiens, UniProt P07550); experiment: biochemical; design: CEREP off-target binding panel, per cent inhibition at 10 uM, n = 2
T22 construct: gene ADRB2

CYP2B6 = CYP2B6 (Homo sapiens, UniProt P20813); experiment: biochemical; design: CYP off-target inhibition panel
Text: These examples have been of interest as tool compounds in commercial development (indicated by patent numbers in Figure 3). […] Initially, [compound left out] was utilized as substrate in this reaction owing to its improved solubility over cholesterol, enabling better run to run reproducibility ([Mast et al., 2003]).

T21 sequence (P32241 whole entry): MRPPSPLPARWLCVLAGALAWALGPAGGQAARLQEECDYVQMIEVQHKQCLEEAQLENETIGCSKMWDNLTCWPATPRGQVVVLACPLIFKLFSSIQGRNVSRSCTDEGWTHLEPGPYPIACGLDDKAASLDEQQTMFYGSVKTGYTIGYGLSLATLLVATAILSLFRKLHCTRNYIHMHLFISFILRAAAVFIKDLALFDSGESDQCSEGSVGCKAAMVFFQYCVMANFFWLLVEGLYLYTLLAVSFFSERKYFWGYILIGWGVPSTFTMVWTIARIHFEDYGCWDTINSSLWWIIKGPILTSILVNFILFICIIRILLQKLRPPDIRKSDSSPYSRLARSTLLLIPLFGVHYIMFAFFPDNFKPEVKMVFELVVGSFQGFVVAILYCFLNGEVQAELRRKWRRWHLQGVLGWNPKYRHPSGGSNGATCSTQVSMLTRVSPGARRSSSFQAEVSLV
T5 sequence (P50406 whole entry): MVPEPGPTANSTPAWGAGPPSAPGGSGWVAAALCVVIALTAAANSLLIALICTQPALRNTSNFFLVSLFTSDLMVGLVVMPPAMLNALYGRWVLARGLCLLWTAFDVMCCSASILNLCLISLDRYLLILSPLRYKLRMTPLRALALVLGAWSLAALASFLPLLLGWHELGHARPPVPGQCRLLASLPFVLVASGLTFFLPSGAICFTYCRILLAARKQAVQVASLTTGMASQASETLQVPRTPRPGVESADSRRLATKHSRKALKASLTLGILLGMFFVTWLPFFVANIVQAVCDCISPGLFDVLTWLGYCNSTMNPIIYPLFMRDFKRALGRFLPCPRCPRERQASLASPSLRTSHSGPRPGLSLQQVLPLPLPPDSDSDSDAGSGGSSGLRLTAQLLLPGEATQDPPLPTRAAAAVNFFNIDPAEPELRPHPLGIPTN
T19 sequence (P06401 whole entry): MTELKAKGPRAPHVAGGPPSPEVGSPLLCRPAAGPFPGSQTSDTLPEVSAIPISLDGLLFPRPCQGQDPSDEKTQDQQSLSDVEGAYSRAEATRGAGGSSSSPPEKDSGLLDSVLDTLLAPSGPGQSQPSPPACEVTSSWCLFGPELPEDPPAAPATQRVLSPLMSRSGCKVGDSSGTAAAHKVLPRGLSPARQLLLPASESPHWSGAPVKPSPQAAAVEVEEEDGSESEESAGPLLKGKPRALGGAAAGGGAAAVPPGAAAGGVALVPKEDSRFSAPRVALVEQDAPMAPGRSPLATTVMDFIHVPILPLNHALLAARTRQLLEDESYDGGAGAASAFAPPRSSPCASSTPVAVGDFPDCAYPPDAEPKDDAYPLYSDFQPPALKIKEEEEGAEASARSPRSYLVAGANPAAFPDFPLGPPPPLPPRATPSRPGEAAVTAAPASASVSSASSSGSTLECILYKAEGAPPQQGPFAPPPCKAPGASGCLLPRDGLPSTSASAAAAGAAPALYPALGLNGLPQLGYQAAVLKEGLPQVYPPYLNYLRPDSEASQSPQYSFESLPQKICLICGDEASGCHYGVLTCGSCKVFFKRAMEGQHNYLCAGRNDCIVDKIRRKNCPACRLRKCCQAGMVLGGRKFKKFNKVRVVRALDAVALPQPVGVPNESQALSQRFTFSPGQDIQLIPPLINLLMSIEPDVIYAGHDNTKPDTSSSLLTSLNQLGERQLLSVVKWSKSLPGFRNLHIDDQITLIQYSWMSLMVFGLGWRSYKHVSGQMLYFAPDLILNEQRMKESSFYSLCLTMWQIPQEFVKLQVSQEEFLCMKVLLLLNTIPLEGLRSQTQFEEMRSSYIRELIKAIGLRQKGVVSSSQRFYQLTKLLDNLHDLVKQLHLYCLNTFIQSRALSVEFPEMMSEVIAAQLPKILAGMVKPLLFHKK
T12 sequence (Q9Y5N1 whole entry): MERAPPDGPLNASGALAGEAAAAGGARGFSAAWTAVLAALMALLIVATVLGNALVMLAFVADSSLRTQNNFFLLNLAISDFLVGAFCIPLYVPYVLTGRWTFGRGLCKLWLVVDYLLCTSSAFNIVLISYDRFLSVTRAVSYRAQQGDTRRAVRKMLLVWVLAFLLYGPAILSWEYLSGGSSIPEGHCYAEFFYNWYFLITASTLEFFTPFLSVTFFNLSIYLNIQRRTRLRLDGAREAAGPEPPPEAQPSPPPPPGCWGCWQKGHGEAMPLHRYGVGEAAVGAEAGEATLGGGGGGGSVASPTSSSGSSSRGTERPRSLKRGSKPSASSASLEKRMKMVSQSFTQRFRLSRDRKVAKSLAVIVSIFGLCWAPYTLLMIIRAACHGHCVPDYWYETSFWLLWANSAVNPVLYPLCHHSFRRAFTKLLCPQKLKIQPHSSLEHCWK
Sequence of Human CCR1 (P32246 whole entry): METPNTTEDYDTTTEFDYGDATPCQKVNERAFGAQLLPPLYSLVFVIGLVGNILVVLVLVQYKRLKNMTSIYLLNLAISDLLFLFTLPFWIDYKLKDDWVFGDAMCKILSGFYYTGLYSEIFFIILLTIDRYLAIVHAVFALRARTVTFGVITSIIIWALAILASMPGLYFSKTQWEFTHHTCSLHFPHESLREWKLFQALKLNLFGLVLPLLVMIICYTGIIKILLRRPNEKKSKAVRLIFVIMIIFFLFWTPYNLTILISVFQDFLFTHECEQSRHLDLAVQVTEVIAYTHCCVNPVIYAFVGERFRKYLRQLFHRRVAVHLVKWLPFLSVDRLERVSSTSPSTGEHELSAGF
T1 sequence (P08908 whole entry): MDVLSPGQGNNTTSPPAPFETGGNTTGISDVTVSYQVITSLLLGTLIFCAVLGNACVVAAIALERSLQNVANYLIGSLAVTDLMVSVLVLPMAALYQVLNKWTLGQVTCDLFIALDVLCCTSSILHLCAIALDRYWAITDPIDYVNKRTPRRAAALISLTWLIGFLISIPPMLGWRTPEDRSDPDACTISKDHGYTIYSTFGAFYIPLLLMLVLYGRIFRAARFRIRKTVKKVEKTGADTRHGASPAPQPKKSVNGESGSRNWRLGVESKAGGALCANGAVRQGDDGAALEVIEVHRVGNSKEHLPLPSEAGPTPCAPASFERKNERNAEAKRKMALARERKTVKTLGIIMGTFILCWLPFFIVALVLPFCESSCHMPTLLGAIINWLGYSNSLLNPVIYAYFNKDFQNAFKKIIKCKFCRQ
T9 sequence (P04150 whole entry): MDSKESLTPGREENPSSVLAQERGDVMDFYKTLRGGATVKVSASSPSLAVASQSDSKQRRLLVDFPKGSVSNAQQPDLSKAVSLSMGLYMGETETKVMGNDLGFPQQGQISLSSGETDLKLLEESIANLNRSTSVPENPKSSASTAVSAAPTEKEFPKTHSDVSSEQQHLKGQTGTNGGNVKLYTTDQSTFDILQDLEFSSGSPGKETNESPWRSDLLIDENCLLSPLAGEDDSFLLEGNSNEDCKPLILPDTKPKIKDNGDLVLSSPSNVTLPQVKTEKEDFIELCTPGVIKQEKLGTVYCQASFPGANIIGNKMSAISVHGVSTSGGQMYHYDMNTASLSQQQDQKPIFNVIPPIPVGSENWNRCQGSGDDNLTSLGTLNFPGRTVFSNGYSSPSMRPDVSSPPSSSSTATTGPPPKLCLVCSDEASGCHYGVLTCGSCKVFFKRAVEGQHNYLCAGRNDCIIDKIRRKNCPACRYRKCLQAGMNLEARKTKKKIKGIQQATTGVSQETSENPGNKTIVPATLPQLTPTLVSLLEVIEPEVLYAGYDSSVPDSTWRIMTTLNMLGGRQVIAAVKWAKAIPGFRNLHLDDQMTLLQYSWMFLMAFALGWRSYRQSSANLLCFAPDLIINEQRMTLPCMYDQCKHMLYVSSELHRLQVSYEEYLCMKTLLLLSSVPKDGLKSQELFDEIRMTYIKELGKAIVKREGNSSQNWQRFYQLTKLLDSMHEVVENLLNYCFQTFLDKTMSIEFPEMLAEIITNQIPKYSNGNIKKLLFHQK
T10 sequence (P35367 whole entry): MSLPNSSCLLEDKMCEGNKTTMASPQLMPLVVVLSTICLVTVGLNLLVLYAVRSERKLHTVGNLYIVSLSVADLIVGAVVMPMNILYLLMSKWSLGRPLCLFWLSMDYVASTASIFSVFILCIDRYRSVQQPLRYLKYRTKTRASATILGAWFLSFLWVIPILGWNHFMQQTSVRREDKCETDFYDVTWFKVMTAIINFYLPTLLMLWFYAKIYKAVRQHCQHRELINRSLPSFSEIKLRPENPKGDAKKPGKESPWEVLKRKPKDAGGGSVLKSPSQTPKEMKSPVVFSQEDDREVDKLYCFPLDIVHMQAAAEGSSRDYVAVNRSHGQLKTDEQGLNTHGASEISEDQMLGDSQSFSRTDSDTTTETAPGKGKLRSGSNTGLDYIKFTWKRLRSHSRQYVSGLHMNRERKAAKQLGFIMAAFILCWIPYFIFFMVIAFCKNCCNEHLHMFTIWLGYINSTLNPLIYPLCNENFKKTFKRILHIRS
T3 sequence (P46098 whole entry): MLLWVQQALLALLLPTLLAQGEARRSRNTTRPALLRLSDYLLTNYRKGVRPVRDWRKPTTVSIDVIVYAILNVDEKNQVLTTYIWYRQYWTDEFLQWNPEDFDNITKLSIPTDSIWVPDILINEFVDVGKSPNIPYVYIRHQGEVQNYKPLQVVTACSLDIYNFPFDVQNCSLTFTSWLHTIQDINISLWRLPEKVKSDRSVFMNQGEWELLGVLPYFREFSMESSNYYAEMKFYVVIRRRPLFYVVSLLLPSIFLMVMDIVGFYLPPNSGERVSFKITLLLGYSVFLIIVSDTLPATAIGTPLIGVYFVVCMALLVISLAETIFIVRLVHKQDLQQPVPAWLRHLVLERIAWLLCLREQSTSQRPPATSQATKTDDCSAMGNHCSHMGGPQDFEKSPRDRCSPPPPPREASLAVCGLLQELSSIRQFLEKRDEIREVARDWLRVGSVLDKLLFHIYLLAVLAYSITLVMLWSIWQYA

Row | SMILES | inhibition at 10 µM (Human 5-HT1A) | inhibition at 10 µM (Human 5-HT1B) | inhibition at 10 µM (Human 5-HT3) | inhibition at 10 µM (Human 5-HT5A) | inhibition at 10 µM (Human 5-HT6) | inhibition at 10 µM (Human 5-HT7) | inhibition at 10 µM (Human A3) | inhibition at 10 µM (Human AR) | inhibition at 10 µM (Human CCR1) | inhibition at 10 µM (Human D2s) | inhibition at 10 µM (Human GR) | inhibition at 10 µM (Human H1) | inhibition at 10 µM (Human H2) | inhibition at 10 µM (Human H3) | inhibition at 10 µM (Human KOP) | inhibition at 10 µM (Human M1) | inhibition at 10 µM (Human MC4) | inhibition at 10 µM (Human MOP) | inhibition at 10 µM (Human NK2) | inhibition at 10 µM (Human NK3) | also measured
1 | O=C(c1cccnc1-c1ccncn1)N1CCC(O)(Cc2ccc(F)cc2)CC1 [compound 2, (4-(4-fluorobenzyl)-4-hydroxypiperidin-1-yl)(2-(pyrimidin-4-yl)pyridin-3-yl)methanone] | 10.8% | -13.3% | 0.8% | 9.6% | 0.9% | 4.2% | 5.4% | 3.1% | -1.7% | -15.4% | -0.6% | -13.3% | -5.4% | -14.7% | -5.2% | -8.6% | 9.8% | 2.5% | -1.4% | 1.1% | inhibition at 10 µM (Human PR): -4.7%; inhibition at 10 µM (Human PXR): 8.8%; inhibition at 10 µM (Human VPAC1): -1.9%; inhibition at 10 µM (Human β2): -2%; IC50 (CYP2B6; read-out: compound 2): > 50 µM
2 | O=C(c1cnc2c(-c3cnco3)cc(C(F)(F)F)cn12)N1C2CCC1COC2 [compound 1, (3-oxa-8-azabicyclo[3.2.1]octan-8-yl)(8-(oxazol-5-yl)-6-(trifluoromethyl)imidazo[1,2-a]pyridin-3-yl)methanone] | 12.4% | -8.4% | 11% | -12.5% | -0.7% | 5.4% | 23.3% | -2% | 2.6% | -15.2% | -8.6% | -12.9% | -6.2% | -3.3% | 8% | 3.3% | 4.5% | -0.7% | -7.9% | 4.1% | inhibition at 10 µM (Human PR): 2%; inhibition at 10 µM (Human PXR): 4.8%; inhibition at 10 µM (Human VPAC1): 5.5%; inhibition at 10 µM (Human β2): -8.1%; IC50 (CYP2B6): > 50 µM
